Measurements as given in patent US20180235993A1 (priority 2000, published 2018).
Like-named read-outs stand apart in the source and are kept apart here.

How the values were obtained:
[1] = Cytotoxicity assay (sulforhodamine B, CC50), Human Hepatoma; format: cell-based; settings: human, Huh7 cells (human hepatoma); Table 13; Huh7 cells
Method: Cells were seeded at a rate of between 5×10^3 and 5×10^4/well into 96-well plates in growth medium overnight at 37° C. in a humidified CO2 (5%) atmosphere. New growth medium containing serial dilutions of the drugs was then added. After incubation for 4 days, cultures were fixed in 50% TCA and stained with sulforhodamineB. The optical density was read at 550 nm. The cytotoxic concentration was expressed as the concentration required to reduce the cell number by 50% (CC50).

BVDV (strain NADL) = assay: Cell Protection Assay (CPA); format: cell-based, Bovine Viral Diarrhea virus; settings: Bovine viral diarrhea virus isolates and strains
Method: The assay was performed essentially as described by Baginski, S. G.; Pevear, D. C.; Seipel, M.; Sun, S. C. C.; Benetatos, C. A.; Chunduru, S. K.; Rice, C. M. and M. S. Collett “Mechanism of action of a pestivirus antiviral compound” PNAS USA 2000, 97(14), 7981-7986. MDBK cells (ATCC) were seeded onto 96-well culture plates (4,000 cells per well) 24 hours before use. After infection with BVDV (strain NADL, ATCC) at a multiplicity of infection (MOI) of 0.02 plaque forming units (PFU) per cell, serial dilutions of test compounds were added to both infected and uninfected cells in a final concentration of 0.5% DMSO in growth medium. Each dilution was tested in quadruplicate. Cell densities and virus inocula were adjusted to ensure continuous cell growth throughout the experiment and to achieve more than 90% virus-induced cell destruction in the untreated controls after four days post-infection. After four days, plates were fixed with 50% TCA and stained with sulforhodamine B. The optical density of the wells was read in a microplate reader at 550 nm. The 50% effective concentration (EC50) values were defined as the compound concentration that achieved 50% reduction of cytopathic effect of the virus. FIGS. 4 and 5 provide a graphical illustration of the methodology used to arrive at the 50% effective concentration (EC50) values for β-D-2′-CH3-riboG and ribavirin. FIG. 6 compares the results of the CPA for β-D-2′-CH3-riboG, β-D-2′-CH3-riboC, riboU, β-D-2′-CH3-riboA and ribavirin

YFV-17D = assay: microbe, parasite or virus in culture; format: cell-based, Yellow fever virus vaccine strain 17D; settings: Yellow fever virus, read-out: YFV EC50
[2] = tested on: Human bone marrow cells (BFU-E); assay: Human bone marrow toxicity, BFU-E clonogenic assay; format: cell-based; settings: Bone marrow cell; human bone marrow colony formation, 14 to 18 days
Description: (§1) Human bone marrow cells were collected from normal healthy volunteers and the mononuclear population was separated by Ficoll-Hypaque gradient centrifugation as described previously by Sommadossi J-P, Carlisle R. “Toxicity of 3′-azido-3′-deoxythymidine and 9-(1,3-dihydroxy-2-propoxymethyl)guanine for normal human hematopoietic progenitor cells in vitro” Antimicrobial Agents and Chemotherapy 1987; 31:452-454; and Sommadossi J-P, Schinazi R F, Chu C K, Xie M-Y. “Comparison of cytotoxicity of the (−)- and (+)-enantiomer of 2′,3′-dideoxy-3′-thiacytidine in normal human bone marrow progenitor cells” Biochemical Pharmacology 1992; 44:1921-1925. The culture assays for CFU-GM and BFU-E were performed using a bilayer soft agar or methylcellulose method. Drugs were diluted in tissue culture medium and filtered. After 14 to 18 days at 37° C. in a humidified atmosphere of 5% CO2 in air, colonies of greater than 50 cells were counted using an inverted microscope. The results in Table 4 are presented as the percent inhibition of colony formation in the presence of drug compared to solvent control cultures.

[3] = tested on: Human bone marrow cells (CFU-GM); assay: Human bone marrow toxicity, CFU-GM clonogenic assay; format: cell-based; settings: Homo sapiens, CFU-GM, read-out: IC50 CFU-GM
Description: as §1

[4] = Bioavailability assay in Cynomolgus monkeys; format: in vivo, Cynomolgus monkey; settings: for Mean Norm AUC: mean of 3 monkeys
Method: Within 1 week prior to the study initiation, the cynomolgus monkey was surgically implanted with a chronic venous catheter and subcutaneous venous access port (VAP) to facilitate blood collection and underwent a physical examination including hematology and serum chemistry evaluations and the body weight was recorded. Each monkey (six total), received approximately 250 uCi of ^3H activity with each dose of active compound, namely β-D-2′-CH3-riboG at a dose level of 10 mg/kg at a dose concentration of 5 mg/mL, either via an intravenous bolus (3 monkeys, IV), or via oral gavage (3 monkeys, PO). Each dosing syringe was weighed before dosing to gravimetrically determine the quantity of formulation administered. Urine samples were collected via pan catch at the designated intervals (approximately 18-0 hours pre-dose, 0-4, 4-8 and 8-12 hours post-dosage) and processed. Blood samples were collected as well (pre-dose, 0.25, 0.5, 1, 2, 3, 6, 8, 12 and 24 hours post-dosage) via the chronic venous catheter and VAP or from a peripheral vessel if the chronic venous catheter procedure should not be possible. The blood and urine samples were analyzed for the maximum concentration (Cmax), time when the maximum concentration was achieved (Tmax), area under the curve (AUC), half life of the dosage concentration (T1/2), clearance (CL), steady state volume and distribution (Vss) and bioavailability (F), which are tabulated in Tables 2 and 3, and graphically illustrated in FIGS. 2 and 3, respectively.

[5] = tested on: Bovine Viral Diarrhea virus (BVDV); assay: microbe, parasite or virus in culture; format: cell-based; settings: Bovine viral diarrhea virus isolates and strains, read-out: BVDV EC50
in vitro [6] = assay: in vitro
in vitro [7] = settings: cattle
[8] = cynomolgus monkey, blood, Cynomolgus monkeys, IV 10 mg/kg
[9] = cynomolgus monkey, blood, Cynomolgus monkeys, PO 10 mg/kg

`CC1(O)[C@@H](O)[C@@H](CO)O[C@H]1n1cnc2c(=O)[nH]c(N)nc21` (stereo partly drawn) [β-D-2′-CH3-riboG] gave an EC50 at 4 days [1] greater than 250 µM, an EC50 (BVDV (strain NADL); 96 h, MDBK cells infected with BVDV, 50% reduction of cytopathic effect, four days, read-out: EC50) of 4 µM and an EC50 (BVDV (strain NADL); Table 13, BVDV, read-out: Cell Protection (EC50)) of 4 µM. The EC50 (YFV-17D) was 1.2 µM, the IC50 [2] was greater than 100 µM and the IC50 [3] was greater than 10 µM. For the same compound, the “Norm AUC” value ([4]; IV Monkey 1) was 293.2 ng·h/mL/mg, the “Norm AUC” value ([4]; IV Monkey 2) was 268.3 ng·h/mL/mg and the “Norm AUC” value ([4]; IV Monkey 3) was 293.4 ng·h/mL/mg. For the same compound, the “Mean Norm AUC” value ([4]; IV) was 284.9 ng·h/mL/mg, the “Norm AUC” value ([4]; PO Monkey 1) was 26.1 ng·h/mL/mg and the “Norm AUC” value ([4]; PO Monkey 2) was 29.0 ng·h/mL/mg. The “Norm AUC” value ([4]; PO Monkey 3) was 61.3 ng·h/mL/mg, the “Mean Norm AUC” value ([4]; PO) was 38.8 ng·h/mL/mg and the F ([4]; Table 3, Cynomolgus monkeys, 10 mg/kg) was 13.8%. For the same compound, the bioavailability ([4]; cynomolgus monkey, blood, 10 mg/kg, Table 2, monkeys, PO vs IV, read-out: F (oral bioavailability)) was 13.6%, the AUC ([4]; cynomolgus monkey, blood, iv, 10 mg/kg, Cynomolgus monkeys, IV 10 mg/kg) was 8760 ± 4210 ng·h/mL and the AUC ([4]; cynomolgus monkey, blood, iv, 10 mg/kg, IV Monkey 1, dose 46.44 mg (10 mg/kg)) was 13600 ng·h/mL. The AUC ([4]; cynomolgus monkey, blood, iv, 10 mg/kg, IV Monkey 2, dose 24.53 mg (10 mg/kg)) was 6580 ng·h/mL, the AUC ([4]; cynomolgus monkey, blood, iv, 10 mg/kg, IV Monkey 3, dose 20.72 mg (10 mg/kg)) was 6080 ng·h/mL and the AUC ([4]; cynomolgus monkey, blood, po, 10 mg/kg, Cynomolgus monkeys, PO 10 mg/kg) was 1170 ± 590 ng·h/mL. It also gave an AUC ([4]; cynomolgus monkey, blood, po, 10 mg/kg, PO Monkey 1, dose 29.04 mg (10 mg/kg)) of 758 ng·h/mL, an AUC ([4]; cynomolgus monkey, blood, po, 10 mg/kg, PO Monkey 2, dose 30.93 mg (10 mg/kg)) of 898 ng·h/mL and an AUC ([4]; cynomolgus monkey, blood, po, 10 mg/kg, PO Monkey 3, dose 30.04 mg (10 mg/kg)) of 1840 ng·h/mL. For the same compound, the Cmax [4, 8] was 6950 ± 1890 ng/mL, the Tmax [4, 8] was 0.25 h and the clearance [4, 8] was 21.3 mL/min/kg. For the same compound, the half-life [4, 8] was 7.9 ± 5.4 h, the Vd ([4]; cynomolgus monkey, blood, Cynomolgus monkeys, IV 10 mg/kg, read-out: Vss) was 2.09 ± 0.54 L/kg and the Cmax [4, 9] was 218 ± 132 ng/mL. For the same compound, the Tmax [4, 9] was 2 ± 1 h, the half-life [4, 9] was 10.3 ± 4.1 h and the EC50 [5] was 2 µM. For the same compound, the CC50 (in vitro [6]; cattle (Bos taurus)) was greater than 100 µM, the CC50 at 4 days (in vitro [6]; hamster) was 20 µM and the CC50 (in vitro [7]) was 100 µM.
